Data: patent publication US12070448B2, “Use of carbamate compound for prevention, alleviation or treatment of status epilepticus” (SK BIOPHARMACEUTICALS CO., LTD., priority 2018, dated 2024)

Assays:
[1] = tested on: pilocarpine-induced status epilepticus; assay: Pilocarpine-induced status epilepticus in mice; type: in vivo, mouse; settings: for Mortality: 50 min
Description: Male mice (C57BL/6, 21-24 g) were used. The experimental animals were housed under a 12-hour light/dark cycle (lighting from 7 pm to 7 am) and maintained at a temperature of 22-25° C. and about 40 to 60% relative humidity. Food and water were provided ad libitum. The animals were randomly divided into the following groups. […]
Experimental Groups of Administering Positive Control and Test Compound 10 Minutes after Onset of Status Epilepticus • As a control, 13 mice intraperitoneally single administered with 30% PEG300 (vehicle) at a volume of 10 ml/kg • As a positive control, 12 mice intraperitoneally single administered valproic acid (VPA) at a dose of 200 mg/kg (10 ml/kg) • 13 Mice intraperitoneally single administered Test Compound at a dose of 25 mg/kg (10 ml/kg) Induction of Status Epilepticus
Methylscopolamine was dissolved in a vehicle (0.9% saline) at a concentration of 1 mg/kg (10 m/kg) and administered subcutaneously to the back of the neck. After 30 minutes, pilocarpine was dissolved in a vehicle (0.9% saline) at a concentration of 320 mg/kg (10 ml/kg) and administered intraperitoneally.
In the case of the drug-administered experimental groups 10 minutes after onset of status epilepticus, valproic acid and Test Compound were administered 10 minutes after onset of status epilepticus. […]
In the case of the drug-administered experimental groups 10 minutes after onset of status epilepticus, Test Compound was administered intraperitoneally at a dose of 25 mg/kg (10 ml/kg). At the same time point, valproic acid (positive control group) was administered intraperitoneally at a dose of 200 mg/kg (10 ml/kg). […]
In the case of the drug-administered experimental groups 10 minutes after onset of status epilepticus, the effects of the compound were represented as the mean±standard error, and statistical significance was recognized when there was a difference of p<0.05 in data using one-way ANOVA and a Tukey's test as a post-hoc test.

[2] = tested on: low Mg2+-induced seizure-like events (SLEs) in CA1 pyramidal neurons of hippocampal slices; assay: Whole-cell patch-clamp model of low Mg2+-induced seizure-like events in mouse hippocampal slices; type: cell-based; settings: for Duration of SLE in comparison with before treatment of Test Compound, during treatment / Number of SLE in comparison with before treatment of Test Compound, during treatment: 100 μM; for Duration of SLE in comparison with before treatment of Test Compound, during treatment / Number of SLE in comparison with before treatment of Test Compound, during treatment / Duration of SLE in comparison with before treatment of Test Compound, after washing / Number of SLE in comparison with before treatment of Test Compound, after washing: mean±standard error; for Duration of SLE in comparison with before treatment of Test Compound, after washing / Number of SLE in comparison with before treatment of Test Compound, after washing: after washout of 100 μM
Description: Male mice (C57BL/6, 24-26 g) were used. The experimental animals were housed under a 12-hour light/dark cycle (lighting from 7 pm to 7 am) and maintained at a temperature of 22-25° C. and about 40 to 60% relative humidity. Food and water were provided ad libitum.
For whole-cell patch-clamp recording, the brain of the mouse was excised, and the hippocampal slices ([…]) were prepared with oxygenated artificial cerebrospinal fluid (ACSF) (124 mM NaCl, 3.0 mM KCl, 1.23 mM NaH2PO4, 2.2 mM CaCl2, 1.2 mM MgCl2, 26 mM NaHCO3, and 10 mM glucose, pH 7.4). All experiments were performed in visually guided CA1 pyramidal neurons, and a glass pipette (4-5 MΩ) was used for recording. After incubating the tissue for 1 hour, a single slice was submerged in a recording chamber and continuously superfused with oxygenated artificial cerebrospinal fluid (32° C.; 95% O2/5% CO2).
For low Mg^2+-induced seizure-like events (SLEs) measurement, 0 mM MgCl2 and 5.0 mM KCl were used. SLEs were defined by more than three spikes in a burst. Whole-cell patch-clamp currents were digitized with a MultiClamp 700B amplifier and a Digidata 1440 (Axon Instruments, CA), and the acquired data were analyzed with the pCLAMP version 10.2 (Axon Instruments) and the Mini Analysis Program (Synaptosoft).
Early SLEs (immediately after onset of SLEs): measurement of SLEs observed 20-30 minutes after the application of low Mg^2+ ACSF.
Late SLEs (after 1 hour incubation in low Mg^2+ ACSF): measurement of SLEs observed immediately after whole-cell rupture.
The treatment of the compound for measuring the effect of Test Compound was initiated 10-15 minutes after the occurrence of SLEs.
The effect of Test Compound was a comparison value (%) to the SLE value that occurred after the treatment of low Mg^2+ ACSF and before the treatment of Test Compound, and was represented as the mean±standard error. When there was a difference of p<0.05 in data by using Student's t-test, statistical significance was recognized.

[3] = Drug administration 10 min after onset of status epilepticus, 200 mg/kg i.p., observed 50 min, mean±standard error
[4] = Early SLE, treatment started 10-15 min after occurrence of SLE, n=5
[5] = Early and late SLEs, 100 μM treated 10-15 minutes after occurrence of SLE, compared to after washing
[6] = Late SLE (after 1 hour in low Mg2+ ACSF), n=8

| SMILES | Mortality ([1]; Drug administration 10 min after onset of status epilepticus, 200 mg/kg i.p.) [%] | Seizure count [1, 3] | Seizure score (modified Racine score) [1, 3] | Duration of SLE in comparison with before treatment of Test Compound, during treatment [2, 4] [%] | Number of SLE in comparison with before treatment of Test Compound, during treatment [2, 4] [%] | Duration of SLE in comparison with before treatment of Test Compound, after washing ([2]; Early SLE, n=5) [%] | Number of SLE in comparison with before treatment of Test Compound, after washing ([2]; Early SLE, n=5) [%] | Duration of SLE, result in words [2, 5] | Number of SLE, result in words [2, 5] | Duration of SLE in comparison with before treatment of Test Compound, during treatment [2, 6] [%] | Number of SLE in comparison with before treatment of Test Compound, during treatment [2, 6] [%] | Duration of SLE in comparison with before treatment of Test Compound, after washing ([2]; Late SLE, n=8) [%] | Number of SLE in comparison with before treatment of Test Compound, after washing ([2]; Late SLE, n=8) [%] | Mortality, result in words ([1]; 20 mg/kg i.p. immediately after occurrence of status epilepticus, compared to the control group) | Mortality ([1]; Drug administration 10 min after onset of status epilepticus, 25 mg/kg i.p.) [%] | Mortality ([1]; Drug administration immediately after onset of status epilepticus, 20 mg/kg i.p.) [%] |
| --- | --- | --- | --- | --- | --- | --- | --- | --- | --- | --- | --- | --- | --- | --- | --- | --- |
| CCCC(CCC)C(=O)O [Positive control group, valproic acid, reference compound] | 14 | 0.8 ± 0.18 | 3.2 ± 0.39 |  |  |  |  |  |  |  |  |  |  |  |  |  |
| NC(=O)O[C@@H](Cn1ncnn1)c1ccccc1Cl [Test Compound, Carbamic acid (R)-1-(2-chlorophenyl)-2-tetrazol-2-yl-ethyl ester] |  |  |  | 15.39 ± 6.82 | 31.45 ± 16.13 | 83.63 ± 5.14 | 91.99 ± 16.47 | significantly reduced | significantly reduced | 42.61 ± 3.50 | 62.12 ± 5.59 | 81.81 ± 13.78 | 92.36 ± 8.21 | tendency to suppress mortality | 0 | 0 |
